Values quoted from earlier work, collected in PubChem BioAssay AID1259409 (Chemical Carcinogenesis Research Information System (CCRIS), 2018).

System: rodent chemically induced tumor inhibition, incidence and multiplicity
Assay: CCRIS tumor inhibitor studies

Compound: C=C(C)[C@@H]1CC=C2C(=CC[C@]3(C)[C@@H](C(CCC=C(C)C)C(=O)O)[C@H](O)C[C@@]23C)[C@@]1(C)CCC(=O)O (stereo not given in full)
- tumour outcome (control, treated, inhibition, significance) (Carcinogen: 7,12-DIMETHYLBENZ[A]ANTHRACENE, 57-97-6, Dose [Inhibitor]: 0, 0.2 UMOL 2/WK FOR 19 WK BEGINNING 1 WK POST CARCINOGEN DOSE (STUDY DURATION: 20 WK), Route [Inhibitor]: DERMAL, Species: MOUSE, Strain/Sex: ICR, Target Tissue: Type of Lesion: SKIN: PAPILLOMA, Dose [Carcinogen]: 50 UG ONCE, Promoter: 12-O-TETRADECANOYLPHORBOL-13-ACETATE, 16561-29-8): 73%, 32%, 56%, not calculated
- tumour outcome (control, treated, inhibition, significance) (Carcinogen: 7,12-DIMETHYLBENZ[A]ANTHRACENE, 57-97-6, Dose [Inhibitor]: 0, 0.2 UMOL IN 100 µL ACETONE:DMSO (9:1) 2/WK FOR 20 WK APPLIED 30 MIN PRIOR TO EACH CARCINOGEN DOSE (STUDY DURATION: 20, Route [Inhibitor]: DERMAL, Species: MOUSE, Strain/Sex: ICR/FEMALE, Target Tissue: Type of Lesion: SKIN: PAPILLOMA, Dose [Carcinogen]: 50 UG IN 100 µL ACETONE ONCE, Promoter: 12-O-TETRADECANOYLPHORBOL-13-ACETATE, 16561-29-8): 73%, 33%, 55%, p<0.05

Compound: S=C=NCCCCc1cccnc1
- tumour outcome (control, treated, inhibition, significance) (Carcinogen: 4-(METHYLNITROSAMINO)-1-(3-PYRIDYL)-1-BUTANONE, 64091-91-4, Dose [Inhibitor]: 0, 0.2 UMOL 1/D FOR 4 D ADMINISTERED PRIOR TO CARCINOGEN TREATMENT (STUDY DURATION: 116 D), Route [Inhibitor]: GAVAGE, Species: MOUSE, Strain/Sex: STRAIN A, Target Tissue: Type of Lesion: LUNG: ADENOMA, Dose [Carcinogen]: 10 UMOL ONCE 2 HR AFTER FINAL DOSE OF INHIBITOR, Promoter: NONE USED): 100%, 100%, 0%, not significant
- tumour outcome (control, treated, inhibition, significance) (Carcinogen: 4-(METHYLNITROSAMINO)-1-(3-PYRIDYL)-1-BUTANONE, 64091-91-4, Dose [Inhibitor]: 0, 1 UMOL 1/D FOR 4 D ADMINISTERED PRIOR TO CARCINOGEN TREATMENT (STUDY DURATION: 116 D), Route [Inhibitor]: GAVAGE, Species: MOUSE, Strain/Sex: STRAIN A, Target Tissue: Type of Lesion: LUNG: ADENOMA, Dose [Carcinogen]: 10 UMOL ONCE 2 HR AFTER FINAL DOSE OF INHIBITOR, Promoter: NONE USED): 100%, 100%, 0%, not significant

Compound: CC(C)Cc1ccc(C(C)C(=O)O)cc1 (stereo not given)
- tumour outcome (control, treated, inhibition, significance) (Carcinogen: 4-(METHYLNITROSAMINO)-1-(3-PYRIDYL-1-BUTANONE, 64091-91-4, Dose [Inhibitor]: 0, 263 MG/KG IN DIET FOR 25 WK BEGINNING 2 WK PRIOR TO CARCINOGEN TREATMENT (STUDY DURATION: 25 WK), Route [Inhibitor]: ORAL, Species: MOUSE, Strain/Sex: STRAIN-A/FEMALE, Target Tissue: Type of Lesion: FORESTOMACH: TUMOR, Dose [Carcinogen]: 9.1 MG IN DRINKING WATER FOR 7 WK, Promoter: NONE USED): 7/25 (28%), 0/25 (0%), 100%, p<0.01
- tumour outcome (control, treated, inhibition, significance) (Carcinogen: AZOXYMETHANE, 25843-45-2, Dose [Inhibitor]: 0, 400 PPM IN DIET BEGINNING 1 WK PRIOR TO CARCINOGEN TREATMENT FOR DURATION OF STUDY (STUDY DURATION: 54 WK), Route [Inhibitor]: ORAL, Species: RAT, Strain/Sex: F344/MALE, Target Tissue: Type of Lesion: COLON: ADENOCARCINOMA, Dose [Carcinogen]: 15 MG/KG/BW 1/WK FOR 2 WK, Promoter: NONE USED): 58%, 33%, 43%, p<0.05
- tumour outcome (control, treated, inhibition, significance) (Carcinogen: AZOXYMETHANE, 25843-45-2, Dose [Inhibitor]: 0, 200 PPM IN DIET BEGINNING 1 WK PRIOR TO CARCINOGEN TREATMENT FOR DURATION OF STUDY (STUDY DURATION: 54 WK), Route [Inhibitor]: ORAL, Species: RAT, Strain/Sex: F344/MALE, Target Tissue: Type of Lesion: COLON: ADENOCARCINOMA, Dose [Carcinogen]: 15 MG/KG/BW 1/WK FOR 2 WK, Promoter: NONE USED): 58%, 41%, 29%, not calculated
- tumour outcome (control, treated, inhibition, significance) (Carcinogen: AZOXYMETHANE, 25843-45-2, Dose [Inhibitor]: 0, 200 PPM IN DIET BEGINNING 1 WK PRIOR TO CARCINOGEN TREATMENT FOR DURATION OF STUDY (STUDY DURATION: 54 WK), Route [Inhibitor]: ORAL, Species: RAT, Strain/Sex: F344/MALE, Target Tissue: Type of Lesion: COLON: ADENOMA, Dose [Carcinogen]: 15 MG/KG/BW 1/WK FOR 2 WK, Promoter: NONE USED): 6%, 6%, 0%, not calculated
- outcome (Carcinogen: AZOXYMETHANE, 25843-45-2, Dose [Inhibitor]: 0, 400 PPM IN DIET BEGINNING 1 WK PRIOR TO CARCINOGEN TREATMENT FOR DURATION OF STUDY (STUDY DURATION: 54 WK), Route [Inhibitor]: ORAL, Species: RAT, Strain/Sex: F344/MALE, Target Tissue: Type of Lesion: COLON: ADENOMA, Dose [Carcinogen]: 15 MG/KG/BW 1/WK FOR 2 WK, Promoter: NONE USED): 6%, 0,%, 100%, not calculated

Compound: O=c1cc[nH]c(=O)[nH]1
- tumour outcome (control, treated, inhibition, significance) (Carcinogen: 7,12-DIMETHYLBENZ[A]ANTHRACENE, 57-97-6, Dose [Inhibitor]: 1.5% IN 20% PROTEIN DIET (STUDY DURATION: 100 D), Route [Inhibitor]: ORAL, Species: RAT, Strain/Sex: STRAIN-CB/FEMALE, Target Tissue: Type of Lesion: MAMMARY GLAND: TUMOR, Dose [Carcinogen]: 15 MG IN 1 ML ARACHIS OIL 1/2 WK FOR 3 DOSES STARTING AT 30 D OF AGE, Promoter: NONE USED): 18/18 (100%), 18/21 (86%), 14%, not calculated
- tumour outcome (control, treated, inhibition, significance) (Carcinogen: N-METHYL-N-NITROSOUREA, 684-93-5, Dose [Inhibitor]: 0, 3% IN DIET FOR 20 WK BEGINNING POST LAST CARCINOGEN DOSE (STUDY DURATION: 24 WK), Route [Inhibitor]: ORAL, Species: RAT, Strain/Sex: F344/MALE, Target Tissue: Type of Lesion: LUNG: ADENOMA, Dose [Carcinogen]: 20 MG/KG 2/WK FOR 4 WK, Promoter: NONE USED): 3/11 (27%), 0/9 (0%), 100%, not significant
- tumour outcome (control, treated, inhibition, significance) (Carcinogen: N-METHYL-N-NITROSOUREA, 684-93-5, Dose [Inhibitor]: 0, 3% IN DIET FOR 20 WK BEGINNING POST LAST CARCINOGEN DOSE (STUDY DURATION: 24 WK), Route [Inhibitor]: ORAL, Species: RAT, Strain/Sex: F344/MALE, Target Tissue: Type of Lesion: THYROID: ADENOMA, CARCINOMA, Dose [Carcinogen]: 20 MG/KG 2/WK FOR 4 WK, Promoter: NONE USED): 6/11 (55%), 1/11 (10%), 82%, p>0.05

Compound: O/N=C/Cc1c[nH]c2ccccc12
- tumour outcome (control, treated, inhibition, significance) (Carcinogen: 7,12-DIMETHYLBENZ[A]ANTHRACENE, 57-97-6, Dose [Inhibitor]: 0.1 MMOL IN 1 ML DIMETHYL SULFOXIDE ONCE 20 HR PRIOR TO CARCINOGEN ADMINISTRATION FOLLOWED BY A 14 WK OBSERVATION PERIOD, Route [Inhibitor]: GAVAGE, Species: RAT, Strain/Sex: SPRAGUE-DAWLEY/FEMALE, Target Tissue: Type of Lesion: MAMMARY GLAND: TUMOR, Dose [Carcinogen]: 12 MG IN 1 ML OLIVE OIL ONCE, Promoter: NONE USED): 64%, 19%, 70%, p<0.05

Compound: O=C(CC(=O)c1ccccc1)c1ccccc1
- tumour outcome (control, treated, inhibition, significance) (Carcinogen: 7,12-DIMETHYLBENZ[A]ANTHRACENE, 57-97-6, Dose [Inhibitor]: 0, 1% IN DIET FOR 22 WK BEGINNING 2 WK PRIOR TO CARCINOGEN DOSE (STUDY DURATION: 22 WK), Route [Inhibitor]: ORAL, Species: MOUSE, Strain/Sex: SENCAR/FEMALE, Target Tissue: Type of Lesion: LYMPHATIC SYSTEM: LYMPHOMA OR LEUKEMIA, Dose [Carcinogen]: 1 MG IN 0.1 ML CORN OIL 1/WK FOR 5 WK, Promoter: NONE USED): 45%, 0%, 100%, p<0.05
- tumour outcome (control, treated, inhibition, significance) (Carcinogen: 7,12-DIMETHYLBENZ[A]ANTHRACENE, 57-97-6, Dose [Inhibitor]: 0, 1% IN DIET FOR 22 WK BEGINNING 2 WK PRIOR TO CARCINOGEN DOSE (STUDY DURATION: 22WK), Route [Inhibitor]: ORAL, Species: MOUSE, Strain/Sex: SENCAR/FEMALE, Target Tissue: Type of Lesion: MAMMARY GLAND: TUMOR, Dose [Carcinogen]: 1 MG IN 0.1 ML CORN OIL 1/WK FOR 5 WK, Promoter: NONE USED): 68%, 2%, 97%, p<0.05
- tumour outcome (control, treated, inhibition, significance) (Carcinogen: 7,12-DIMETHYLBENZ[A]ANTHRACENE, 57-97-6, Dose [Inhibitor]: 0, 1% IN DIET FOR 22 WK BEGINNING 2 WK PRIOR TO CARCINOGEN DOSE (STUDY DURATION: 22WK), Route [Inhibitor]: ORAL, Species: MOUSE, Strain/Sex: SENCAR/FEMALE, Target Tissue: Type of Lesion: OVARY:TUMOR, Dose [Carcinogen]: 1 MG IN 0.1 ML CORN OIL 1/WK FOR 5 WK, Promoter: NONE USED): 20%, 0%, 100%, p<0.05
- outcome (Carcinogen: 7,12-Dimethylbenz[a]anthracene, 57-97-6, Dose [Inhibitor]: 0, 10 umol 3x/wk for 10 wk, Route [Inhibitor]: Dermal, Species: Mouse, Strain/Sex: CD-1/Female, Target Tissue: Type of Lesion: Skin: tumor, Dose [Carcinogen]: 200 nmol in 200 ul acetone, once, study duration 11 wk, Promoter: Mirex, 2385-85-5): 37%, 15%, not significant
- outcome (Carcinogen: 7,12-Dimethylbenz[a]anthracene, 57-97-6, Dose [Inhibitor]: 0, 10 umol 3x/wk for 14 wk, Route [Inhibitor]: Dermal, Species: Mouse, Strain/Sex: CD-1/Female, Target Tissue: Type of Lesion: Skin: tumor, Dose [Carcinogen]: 200 nmol in 200 ul acetone, once, study duration 15 wk, Promoter: Mirex, 2385-85-5): 60%, 40%, not significant
- outcome (Carcinogen: 7,12-Dimethylbenz[a]anthracene, 57-97-6, Dose [Inhibitor]: 0, 10 umol 3x/wk for 18 wk, Route [Inhibitor]: Dermal, Species: Mouse, Strain/Sex: CD-1/Female, Target Tissue: Type of Lesion: Skin: tumor, Dose [Carcinogen]: 200 nmol in 200 ul acetone, once, study duration 19 wk, Promoter: Mirex, 2385-85-5): 80%, 70%, not significant
- outcome (Carcinogen: 7,12-Dimethylbenz[a]anthracene, 57-97-6, Dose [Inhibitor]: 0, 1% in diet for 22 wk beginning 2 wk prior to carcinogen dose (study duration: 22wk), Route [Inhibitor]: Oral, Species: Mouse, Strain/Sex: Sencar/Female, Target Tissue: Type of Lesion: Mammary Gland: Tumor, Dose [Carcinogen]: 1 mg in 0.1 ml corn oil 1/wk for 5 wk, Promoter: None): 3%, 0%, 100% at 3 wk; 38%, 0%, 100% at 9 wk; 55%, 0% at 13 wk; 68%, 3%, 96% at 2
